Usually hepatocyte CLint stands for the rate of metabolic loss divided by the concentration. Read a high hepatocyte CLint as rapid turnover. The term logD denotes the decadic logarithm of the distribution of all forms, ionised or not, between an organic phase and buffer at a given pH. The term pKa denotes the negative logarithm of the acid dissociation constant. High values mean a group that holds its proton tightly, low ones a group that gives up its proton readily. What is called IC50 is the midpoint of a concentration-inhibition curve. A higher IC50 goes with lower potency. Broadly, the Papp A→B is the apparent permeability from the apical to the basolateral side of a cell layer. For orientation: efflux ratio means the permeability from basolateral to apical divided by that in the opposite direction, in the common usage. As usually defined, the bioavailability is the share of a dose that reaches the circulation, judged against a reference dose that is usually intravenous. Higher therefore signals good availability. The half-life is the time needed for the level to fall by half in the phase considered. A word on the clearance: it is the rate of elimination divided by the concentration. A lower clearance goes with a low capacity for elimination.

From ChEMBL document CHEMBL4152224, “The Identification of Potent, Selective, and Orally Available Inhibitors of Ataxia Telangiectasia Mutated (ATM) Kinase: The Discovery of AZD0156 (8-{6-[3-(Dimethylamino)propoxy]pyridin-3-yl}-3-methyl-1-(tetrahydro-2 H-pyran-4-yl)-1,3-dihydro-2 H-imidazo[4,5- c]quinolin-2-one)” (J Med Chem, 2018) come the findings set out here.

A short description of series [1]: Intrinsic clearance in rat hepatocytes assessed per million cells.
Series [2] is described as follows: Buffer/octanol partition coefficient, log D of the compound at pH 7.4 by shake flask method. The class given is physicochemical.
Series [3] is described as follows: Dissociation constant, pKa of the compound. It counts as physicochemical.
Series [4] can be described thus: Thermodynamic solubility of the compound in 0.1M aqueous phosphate buffer at pH 7.4 after 24 hrs by LC-UV analysis. It counts as physicochemical. The following applies: read-out: Therm_solubility.
Series [5] concerns the target Serine-protein kinase ATM (Homo sapiens, UniProt Q13315).
In series [6] the target is Serine/threonine-protein kinase ATR (Homo sapiens, UniProt Q13535).
Series [7] in a line: Intrinsic clearance in human hepatocytes assessed per million cells.
Series [8] is described as follows: Apparent permeability across apical to basolateral side in MDCK cells overexpressing MDR1. The class given is ADME, cell-based, Canis lupus familiaris. The note with it: dog.
Series [9] concerns the target Voltage-gated inwardly rectifying potassium channel KCNH2 (Homo sapiens, UniProt Q12809). Put plainly: Inhibition of human ERG by electrophysiology assay.
Another series is described as follows: in vitro. The following applies: dog, MDCK-MDR1.
Series [10] is described as follows: Apparent permeability across apical to basolateral side in human Caco2 cells. The class given is ADME, cell-based. The following applies: Caco-2. A general note: Caco-2 monolayers are a common model of the intestinal barrier.
Series [11] in a line: Oral bioavailability in rat. It counts as ADME, organism-based. The following applies: in vivo.
Series [12] can be described thus: in vivo. The note with it: dog.
A short description of series [13]: in vivo. The note with it: rat.
A short description of series [14]: Oral bioavailability in dog. The class given is ADME, organism-based, Canis lupus familiaris. The following applies: in vivo.
The nature of series [15]: Volume of distribution at steady state in rat. It counts as ADME, organism-based. The note with it: in vivo, read-out: Vdss.
Series [16] is described as follows: Volume of distribution at steady state in dog. It counts as ADME, organism-based, Canis lupus familiaris. The note with it: in vivo, read-out: Vdss.
Series [17] is described as follows: in vivo. The note with it: rat. The source holds these as a separate data set.
The nature of series [18]: in vivo. The note with it: dog. This is another data set of the same source.

The structures appear in SMILES notation. In brackets after ≈: the same amount, converted by molar mass.

Chain of Serine/threonine-protein kinase ATR (Q13535 whole entry): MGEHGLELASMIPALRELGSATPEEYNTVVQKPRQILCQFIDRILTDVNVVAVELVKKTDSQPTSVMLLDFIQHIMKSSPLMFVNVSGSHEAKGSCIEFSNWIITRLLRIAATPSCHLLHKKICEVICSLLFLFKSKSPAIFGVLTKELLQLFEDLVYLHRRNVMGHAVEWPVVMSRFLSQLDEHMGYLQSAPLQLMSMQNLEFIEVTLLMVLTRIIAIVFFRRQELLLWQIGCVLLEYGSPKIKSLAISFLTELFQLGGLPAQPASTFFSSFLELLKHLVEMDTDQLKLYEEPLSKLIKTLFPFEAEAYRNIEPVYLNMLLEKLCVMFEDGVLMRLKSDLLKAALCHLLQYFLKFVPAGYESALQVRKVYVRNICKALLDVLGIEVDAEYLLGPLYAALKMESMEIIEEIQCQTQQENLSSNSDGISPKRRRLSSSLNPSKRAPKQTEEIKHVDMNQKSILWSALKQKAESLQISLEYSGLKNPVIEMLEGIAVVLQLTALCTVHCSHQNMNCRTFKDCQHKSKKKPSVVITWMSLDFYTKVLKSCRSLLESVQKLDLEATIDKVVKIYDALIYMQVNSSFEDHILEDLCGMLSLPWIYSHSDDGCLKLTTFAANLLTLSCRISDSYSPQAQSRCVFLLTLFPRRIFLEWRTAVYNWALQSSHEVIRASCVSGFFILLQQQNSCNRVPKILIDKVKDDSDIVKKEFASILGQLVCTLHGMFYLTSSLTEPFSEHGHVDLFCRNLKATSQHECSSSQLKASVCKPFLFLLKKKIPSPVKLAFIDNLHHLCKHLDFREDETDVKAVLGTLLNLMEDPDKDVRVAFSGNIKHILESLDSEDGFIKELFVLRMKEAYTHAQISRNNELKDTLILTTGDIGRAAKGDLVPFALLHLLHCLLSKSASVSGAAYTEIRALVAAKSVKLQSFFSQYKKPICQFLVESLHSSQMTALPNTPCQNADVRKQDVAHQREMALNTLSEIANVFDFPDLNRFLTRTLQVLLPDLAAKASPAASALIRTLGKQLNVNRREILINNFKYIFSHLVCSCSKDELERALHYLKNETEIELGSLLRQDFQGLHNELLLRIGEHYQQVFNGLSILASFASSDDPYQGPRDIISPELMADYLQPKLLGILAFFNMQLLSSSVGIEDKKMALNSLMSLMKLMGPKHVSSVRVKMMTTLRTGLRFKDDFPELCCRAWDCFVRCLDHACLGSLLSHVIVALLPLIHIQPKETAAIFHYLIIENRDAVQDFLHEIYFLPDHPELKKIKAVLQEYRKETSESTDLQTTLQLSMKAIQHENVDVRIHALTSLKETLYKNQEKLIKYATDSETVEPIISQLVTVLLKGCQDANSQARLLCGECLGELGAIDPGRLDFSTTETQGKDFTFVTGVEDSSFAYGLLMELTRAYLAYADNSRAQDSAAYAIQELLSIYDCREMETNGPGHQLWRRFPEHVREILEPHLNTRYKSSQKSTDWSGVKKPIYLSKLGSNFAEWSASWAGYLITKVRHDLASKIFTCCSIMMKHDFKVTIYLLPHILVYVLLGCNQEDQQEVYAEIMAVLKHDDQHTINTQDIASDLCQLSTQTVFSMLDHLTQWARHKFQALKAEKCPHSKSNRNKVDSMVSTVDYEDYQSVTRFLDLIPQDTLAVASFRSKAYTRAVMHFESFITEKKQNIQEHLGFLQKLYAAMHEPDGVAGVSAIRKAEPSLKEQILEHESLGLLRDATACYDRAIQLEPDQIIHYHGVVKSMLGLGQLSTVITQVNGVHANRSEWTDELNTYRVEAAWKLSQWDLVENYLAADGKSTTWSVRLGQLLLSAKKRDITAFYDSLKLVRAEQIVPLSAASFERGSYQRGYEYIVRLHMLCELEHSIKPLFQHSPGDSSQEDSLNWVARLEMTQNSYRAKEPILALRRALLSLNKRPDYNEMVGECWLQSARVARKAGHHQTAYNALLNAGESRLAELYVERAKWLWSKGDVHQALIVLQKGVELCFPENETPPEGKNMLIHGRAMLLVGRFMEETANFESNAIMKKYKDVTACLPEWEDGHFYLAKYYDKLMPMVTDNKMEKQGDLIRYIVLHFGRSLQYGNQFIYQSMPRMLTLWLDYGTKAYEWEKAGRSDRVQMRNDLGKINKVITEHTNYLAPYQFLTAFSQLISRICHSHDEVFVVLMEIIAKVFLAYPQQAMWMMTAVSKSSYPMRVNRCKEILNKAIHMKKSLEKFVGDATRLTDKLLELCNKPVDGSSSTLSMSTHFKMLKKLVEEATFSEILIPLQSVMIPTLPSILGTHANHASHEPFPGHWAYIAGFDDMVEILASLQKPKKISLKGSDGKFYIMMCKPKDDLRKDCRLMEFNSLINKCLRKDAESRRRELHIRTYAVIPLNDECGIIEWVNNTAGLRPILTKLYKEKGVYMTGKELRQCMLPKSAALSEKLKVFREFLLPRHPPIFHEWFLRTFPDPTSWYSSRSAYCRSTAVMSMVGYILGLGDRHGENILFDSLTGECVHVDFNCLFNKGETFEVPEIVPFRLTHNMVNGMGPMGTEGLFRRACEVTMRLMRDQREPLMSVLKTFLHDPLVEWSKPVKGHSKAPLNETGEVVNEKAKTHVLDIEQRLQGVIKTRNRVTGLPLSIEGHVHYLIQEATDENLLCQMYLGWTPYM
Chain of Voltage-gated inwardly rectifying potassium channel KCNH2 (Q12809 whole entry): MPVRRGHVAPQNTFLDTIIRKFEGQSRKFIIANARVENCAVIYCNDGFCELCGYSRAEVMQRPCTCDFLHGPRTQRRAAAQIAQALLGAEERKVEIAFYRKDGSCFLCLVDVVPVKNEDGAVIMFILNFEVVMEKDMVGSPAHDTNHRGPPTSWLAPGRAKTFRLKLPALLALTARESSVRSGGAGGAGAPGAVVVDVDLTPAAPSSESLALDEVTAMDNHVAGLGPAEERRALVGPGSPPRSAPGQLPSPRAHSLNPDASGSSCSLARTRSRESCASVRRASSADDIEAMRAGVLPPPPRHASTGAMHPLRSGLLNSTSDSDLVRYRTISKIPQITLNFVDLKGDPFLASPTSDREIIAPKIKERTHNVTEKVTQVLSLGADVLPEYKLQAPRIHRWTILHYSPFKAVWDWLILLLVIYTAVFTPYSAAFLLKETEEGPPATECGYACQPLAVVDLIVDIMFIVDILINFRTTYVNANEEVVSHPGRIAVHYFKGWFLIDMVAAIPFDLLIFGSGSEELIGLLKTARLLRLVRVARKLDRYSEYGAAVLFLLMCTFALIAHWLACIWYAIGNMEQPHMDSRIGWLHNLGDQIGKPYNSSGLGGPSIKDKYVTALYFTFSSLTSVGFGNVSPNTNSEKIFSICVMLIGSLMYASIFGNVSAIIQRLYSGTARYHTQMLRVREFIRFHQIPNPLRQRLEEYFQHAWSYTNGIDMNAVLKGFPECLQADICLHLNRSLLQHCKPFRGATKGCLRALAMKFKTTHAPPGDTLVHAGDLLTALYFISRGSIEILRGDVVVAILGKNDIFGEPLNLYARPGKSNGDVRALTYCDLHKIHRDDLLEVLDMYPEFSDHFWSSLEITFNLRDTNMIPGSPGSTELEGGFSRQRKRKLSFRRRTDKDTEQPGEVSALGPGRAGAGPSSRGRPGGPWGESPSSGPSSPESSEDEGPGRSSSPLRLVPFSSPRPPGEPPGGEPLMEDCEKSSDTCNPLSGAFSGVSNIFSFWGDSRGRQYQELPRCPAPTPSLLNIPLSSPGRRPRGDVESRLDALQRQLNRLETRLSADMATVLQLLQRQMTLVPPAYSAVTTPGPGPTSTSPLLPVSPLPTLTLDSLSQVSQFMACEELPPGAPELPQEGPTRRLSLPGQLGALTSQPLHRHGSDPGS
Description for in vitro: Efflux ratio of apparent permeability across basolateral to apical over apical to basolateral side in MDCK cells overexpressing MDR1

Take `CO[C@H]1C[C@@H](n2c(=O)n(C)c3cnc4ccc(-c5ccc(OCCCN6CCC(O)CC6)nc5)cc4c32)C1`: the hepatocyte CLint in series [1] was less than 1 µL/min/1e6 cells. This molecule showed a logD in series [2] of 0.6. This molecule also displayed a pKa in [3] of 8.4. Moreover, in series [4], the solubility thermodynamic at 24 h is 750 µM (≈ 388 µg/mL). Further, the IC50 was 27 µM in [5] and more than 30 µM in series [6].

On to `CO[C@H]1C[C@@H](n2c(=O)n(C)c3cnc4cc(F)c(-c5ccc(OCCN(C)C)nc5)cc4c32)C1`, for which the figures for the hepatocyte CLint in series [7] and in series [1] were 8.3 µL/min/1e6 cells and 12 µL/min/1e6 cells, respectively. Moreover, in [8], the Papp A→B was 16 ×10⁻⁶ cm/s. The logD in series [2] was determined as 2. In addition, the IC50 in series [9] is more than 33 µM; in series [5], 0.023 µM; in [6], more than 30 µM. Further, the pKa in series [3] was found to be 8.5. For the same molecule, the solubility thermodynamic at 24 h in series [4] is more than 1000 µM. The efflux ratio in “in vitro” turned out to be 1.6.

On to `NC(=O)c1cnc2ccc(-c3cccnc3)cc2c1NC1CCOCC1`, for which the hepatocyte CLint in series [7] is less than 4 µL/min/1e6 cells. Moreover, the Papp A→B turned out to be 4.8 ×10⁻⁶ cm/s in [8] and 15 ×10⁻⁶ cm/s in [10]. The solubility thermodynamic at 24 h in series [4] was more than 610 µM.

`CO[C@H]1C[C@@H](n2c(=O)n(C)c3cnc4ccc(-c5ccc(OCCCN6CCCC6)nc5)cc4c32)C1`: the values for the hepatocyte CLint in series [7] and in series [1] were 5.3 µL/min/1e6 cells and less than 1.3 µL/min/1e6 cells, respectively. In addition, the Papp A→B in [8] stood at 2.5 ×10⁻⁶ cm/s. Moreover, the logD in series [2] was determined as 1.8. The values for the IC50 in series [9], in [5] and in series [6] were more than 33 µM, 0.00017 µM and more than 24 µM, respectively. The solubility thermodynamic at 24 h in series [4] is more than 1100 µM. Further, the efflux ratio in the series “in vitro” worked out at 9.4.

Turning to `COCc1ccc(-c2cc3c(cc2F)ncc2c3n([C@H]3CC[C@H](OC)CC3)c(=O)n2C)cn1`, the hepatocyte CLint in [7] and in [1] was 10 µL/min/1e6 cells in each case. Moreover, the Papp A→B in series [8] was found to be 20 ×10⁻⁶ cm/s. This molecule also returned a logD in series [2] of 3.2. Also, the IC50 in series [9] was 27 µM; in [5], 0.24 µM; in series [6], more than 26 µM. The solubility thermodynamic at 24 h in [4] stood at 84 µM (≈ 37.8 µg/mL). Moreover, in the series “in vitro”, the efflux ratio came out at 0.6.

The molecule `CO[C@H]1C[C@@H](n2c(=O)n(C)c3cnc4ccc(-c5ccc(OCCCN6CCOCC6)nc5)cc4c32)C1` had a hepatocyte CLint in series [1] of 28 µL/min/1e6 cells. In series [2], the logD was 1.4. In addition, the pKa in series [3] was 6.7. In addition, the solubility thermodynamic at 24 h in series [4] was found to be 980 µM (≈ 494 µg/mL). Besides, the results for the IC50 in series [5] and in [6] were more than 28 µM and more than 30 µM, respectively.

For the molecule `COCc1ccc(-c2cc3c(cc2F)ncc2c3n([C@H]3C[C@H](OC)C3)c(=O)n2C)cn1`, the hepatocyte CLint in [7] was determined as 8.4 µL/min/1e6 cells; in [1], 4.3 µL/min/1e6 cells. For the same molecule, in series [8], the Papp A→B came out at 28 ×10⁻⁶ cm/s. In addition, the logD in [2] came to 3. Also, the results for the IC50 in series [9], in [5] and in series [6] were 8.9 µM, 0.16 µM and more than 28 µM, respectively. Also, in [4], the solubility thermodynamic at 24 h was determined as 49 µM (≈ 20.7 µg/mL). Further, the efflux ratio in “in vitro” came to 0.6.

As for `CNCCCOc1ccc(-c2ccc3ncc4c(c3c2)n([C@H]2C[C@@H](OC)C2)c(=O)n4C)cn1`, the hepatocyte CLint was 4.4 µL/min/1e6 cells in [7] and 4.8 µL/min/1e6 cells in series [1]. Besides, in series [8], the Papp A→B was 0.65 ×10⁻⁶ cm/s. Also, the logD in [2] stood at 0.4. This molecule also came in with an IC50 in series [9] of more than 33 µM. Also, in series [3], the pKa came out at 10.3. In addition, in [4], the solubility thermodynamic at 24 h came to 930 µM (≈ 416 µg/mL). In addition, the efflux ratio in the series “in vitro” was 41.

In the case of `CO[C@H]1C[C@@H](n2c(=O)n(C)c3cnc4cc(F)c(-c5ccc(NC(=O)CCCN(C)C)nc5)cc4c32)C1`, the hepatocyte CLint is 6.5 µL/min/1e6 cells in series [7] and 7 µL/min/1e6 cells in [1]. For the same molecule, the Papp A→B in series [8] amounted to 0.4 ×10⁻⁶ cm/s. Besides, in [2], the logD is 1.1. The results for the IC50 in series [9], in series [5] and in series [6] were 18 µM, 0.0082 µM and more than 30 µM, respectively. The solubility thermodynamic at 24 h in series [4] amounted to 870 µM (≈ 441 µg/mL). In “in vitro”, the efflux ratio worked out at 77.

Regarding `CO[C@H]1C[C@@H](n2c(=O)n(C)c3cnc4cc(F)c(-c5ccc(OCCCN(C)C)nc5)cc4c32)C1`, the hepatocyte CLint in [7] is 7.9 µL/min/1e6 cells; in series [1] it was 6.6 µL/min/1e6 cells. In series [8], the Papp A→B amounted to 6.8 ×10⁻⁶ cm/s. Besides, the logD in series [2] was 1.8. The molecule further displayed an IC50 in [9] of more than 33 µM. The pKa in series [3] stood at 9.3. The solubility thermodynamic at 24 h in series [4] is more than 980 µM. Moreover, in the series “in vitro”, the efflux ratio came out at 6.2.

As to `CO[C@H]1C[C@@H](n2c(=O)n(C)c3cnc4ccc(-c5ccc(OCCCN(C)C)nc5)cc4c32)C1`, the bioavailability in series [11] came out at 50%; in series [14] it was 65%. Besides, the half-life in “in vivo [12]” and in the series “in vivo [17]” was 5 h in each case. Moreover, the hepatocyte CLint came to 8.7 µL/min/1e6 cells in [7] and 5.1 µL/min/1e6 cells in [1]. Also, the Papp A→B in series [8] worked out at 7.8 ×10⁻⁶ cm/s. The same molecule returned a logD in series [2] of 1.6. Besides, the IC50 is more than 33 µM in series [9] and more than 30 µM in [6]. The same molecule registered a pKa in series [3] of 9.5. In addition, the clearance in the series “in vivo [13]” was determined as 19.5 mL/min/kg; in the series “in vivo [18]” it was 27.6 mL/min/kg. Also, the values for the Vd in series [15] and in series [16] were 5.7 L/kg and 11 L/kg, respectively. Moreover, the solubility thermodynamic at 24 h in series [4] worked out at 540 µM (≈ 249 µg/mL). The efflux ratio in “in vitro” was 3.

`COCc1ccc(-c2cc3c(cc2F)ncc2c3n([C@H]3C[C@@H](O)C3)c(=O)n2C)cn1`: the hepatocyte CLint was 2.7 µL/min/1e6 cells in [7] and 6 µL/min/1e6 cells in series [1]. For the same molecule, in series [8], the Papp A→B came to 14 ×10⁻⁶ cm/s. This molecule returned a logD in [2] of 2. Also, the IC50 in series [9] is 15 µM; in series [5], 0.14 µM; in series [6], more than 30 µM. Also, the solubility thermodynamic at 24 h in series [4] is 270 µM (≈ 110 µg/mL). Also, in the series “in vitro”, the efflux ratio is 2.6.

In the case of `Cn1c(=O)n(C2CCOCC2)c2c3cc(-c4cccnc4)ccc3ncc21`, the hepatocyte CLint in series [7] was less than 4.9 µL/min/1e6 cells; in [1], 9.4 µL/min/1e6 cells. For the same molecule, the Papp A→B was 30 ×10⁻⁶ cm/s in series [8] and 60 ×10⁻⁶ cm/s in series [10]. Also, the logD in [2] was determined as 2.2. In series [9], this molecule had an IC50 of 11 µM. Besides, the solubility thermodynamic at 24 h in series [4] worked out at 17 µM (≈ 6.13 µg/mL).

On to `COCc1ccc(-c2cc3c(cc2F)ncc2c3n([C@H]3C[C@@H](OC)C3)c(=O)n2C)cn1`, for which, in [11], the bioavailability was more than 100%. The hepatocyte CLint in series [7] worked out at 8.8 µL/min/1e6 cells; in [1], 4.5 µL/min/1e6 cells. Besides, in [8], the Papp A→B stood at 38 ×10⁻⁶ cm/s. In series [2], this molecule gave a logD of 2.7. Besides, the IC50 in series [9] was 9 µM; in series [5] it was 0.1 µM; in series [6], more than 30 µM. The molecule also returned a clearance in the series “in vivo [13]” of 22.5 mL/min/kg. Moreover, the Vd in [15] came out at 0.98 L/kg. In addition, the solubility thermodynamic at 24 h in series [4] worked out at 37 µM (≈ 15.6 µg/mL). For the same molecule, the half-life in “in vivo [17]” was 2.7 h. Also, in the series “in vitro”, the efflux ratio amounted to 0.4.
